Data reported in ChEMBL document CHEMBL5303573, “Mapping human microbiome drug metabolism by gut bacteria and their genes” (Nature, 2019).

Conditions: bacteroides thetaiotaomicron, 12 h, 2 µM
Description: The drug is tested on Bacteroides thetaiotaomicron strain: 7330 for biotransformation. The drug concentrations were measured before and after a 12-h incubation by liquid-chromatography-coupled mass spectrometry (LC–MS)

Compound | Bacterial Biotransformation
CS(=O)(=O)O.OC(CCN1CCCCC1)(c1ccccc1)c1ccccc1 [PRIDINOL METHANESULFONATE] | Compound NOT metabolized
CN1[C@@H]2CC[C@H]1C[C@@H](OC(=O)c1c[nH]c3ccccc13)C2 [TROPISETRON] | Compound NOT metabolized
COc1ccccc1OCC(O)CN1CCN(CC(=O)Nc2c(C)cccc2C)CC1 (stereo not given) [RANOLAZINE] | Compound NOT metabolized

Test: The drug is tested on Parabacteroides merdae strain: ATCC43184 for biotransformation. The drug concentrations were measured before and after a 12-h incubation by liquid-chromatography-coupled mass spectrometry (LC–MS)
Conditions: 2 µM

Compound | Bacterial Biotransformation
CS(=O)(=O)O.OC(CCN1CCCCC1)(c1ccccc1)c1ccccc1 [PRIDINOL METHANESULFONATE] | Compound NOT metabolized
CN1[C@@H]2CC[C@H]1C[C@@H](OC(=O)c1c[nH]c3ccccc13)C2 [TROPISETRON] | Compound NOT metabolized
COc1ccccc1OCC(O)CN1CCN(CC(=O)Nc2c(C)cccc2C)CC1 (stereo not given) [RANOLAZINE] | Compound NOT metabolized

Conditions: bacteroides intestinalis, 12 h, 2 µM
Description: The drug is tested on Bacteroides intestinalis strain: DSM17393 for biotransformation. The drug concentrations were measured before and after a 12-h incubation by liquid-chromatography-coupled mass spectrometry (LC–MS)

Compound | Bacterial Biotransformation
CS(=O)(=O)O.OC(CCN1CCCCC1)(c1ccccc1)c1ccccc1 [PRIDINOL METHANESULFONATE] | Compound NOT metabolized
CN1[C@@H]2CC[C@H]1C[C@@H](OC(=O)c1c[nH]c3ccccc13)C2 [TROPISETRON] | Compound NOT metabolized
COc1ccccc1OCC(O)CN1CCN(CC(=O)Nc2c(C)cccc2C)CC1 (stereo not given) [RANOLAZINE] | Compound NOT metabolized

Test: The drug is tested on Clostridium asparagiforme strain: DSM15981 for biotransformation. The drug concentrations were measured before and after a 12-h incubation by liquid-chromatography-coupled mass spectrometry (LC–MS)
Assay type: ADME
Design: dose 2 uM, timepoint 0 vs 12 hours
Conditions: enterocloster asparagiformis, 2 µM

Compound | Bacterial Biotransformation
CS(=O)(=O)O.OC(CCN1CCCCC1)(c1ccccc1)c1ccccc1 [PRIDINOL METHANESULFONATE] | Compound NOT metabolized
CN1[C@@H]2CC[C@H]1C[C@@H](OC(=O)c1c[nH]c3ccccc13)C2 [TROPISETRON] | Compound NOT metabolized
COc1ccccc1OCC(O)CN1CCN(CC(=O)Nc2c(C)cccc2C)CC1 (stereo not given) [RANOLAZINE] | Compound NOT metabolized

Test: The drug is tested on Edwardsiella tarda strain: ATCC23685 for biotransformation. The drug concentrations were measured before and after a 12-h incubation by liquid-chromatography-coupled mass spectrometry (LC–MS)
Conditions: 2 µM

Compound | Bacterial Biotransformation
CS(=O)(=O)O.OC(CCN1CCCCC1)(c1ccccc1)c1ccccc1 [PRIDINOL METHANESULFONATE] | Compound NOT metabolized
CN1[C@@H]2CC[C@H]1C[C@@H](OC(=O)c1c[nH]c3ccccc13)C2 [TROPISETRON] | Compound NOT metabolized
COc1ccccc1OCC(O)CN1CCN(CC(=O)Nc2c(C)cccc2C)CC1 (stereo not given) [RANOLAZINE] | Compound NOT metabolized

Test: The drug is tested on Bacteroides sp. WH2 strain: WH2 for biotransformation. The drug concentrations were measured before and after a 12-h incubation by liquid-chromatography-coupled mass spectrometry (LC–MS)
Conditions: bacteroides sp. wh2, 12 h, 2 µM

Compound | Bacterial Biotransformation
CS(=O)(=O)O.OC(CCN1CCCCC1)(c1ccccc1)c1ccccc1 [PRIDINOL METHANESULFONATE] | Compound NOT metabolized
CN1[C@@H]2CC[C@H]1C[C@@H](OC(=O)c1c[nH]c3ccccc13)C2 [TROPISETRON] | Compound NOT metabolized
COc1ccccc1OCC(O)CN1CCN(CC(=O)Nc2c(C)cccc2C)CC1 (stereo not given) [RANOLAZINE] | Compound NOT metabolized

Conditions: bacteroides stercoris, 12 h, 2 µM
Description: The drug is tested on Bacteroides stercoris strain: ATCC43183 for biotransformation. The drug concentrations were measured before and after a 12-h incubation by liquid-chromatography-coupled mass spectrometry (LC–MS)

Compound | Bacterial Biotransformation
CS(=O)(=O)O.OC(CCN1CCCCC1)(c1ccccc1)c1ccccc1 [PRIDINOL METHANESULFONATE] | Compound NOT metabolized
CN1[C@@H]2CC[C@H]1C[C@@H](OC(=O)c1c[nH]c3ccccc13)C2 [TROPISETRON] | Compound NOT metabolized
COc1ccccc1OCC(O)CN1CCN(CC(=O)Nc2c(C)cccc2C)CC1 (stereo not given) [RANOLAZINE] | Compound NOT metabolized

Test: The drug is tested on Collinsella intestinalis strain: DSM13280 for biotransformation. The drug concentrations were measured before and after a 12-h incubation by liquid-chromatography-coupled mass spectrometry (LC–MS)
Conditions: 2 µM

Compound | Bacterial Biotransformation
CS(=O)(=O)O.OC(CCN1CCCCC1)(c1ccccc1)c1ccccc1 [PRIDINOL METHANESULFONATE] | Compound NOT metabolized
CN1[C@@H]2CC[C@H]1C[C@@H](OC(=O)c1c[nH]c3ccccc13)C2 [TROPISETRON] | Compound NOT metabolized
COc1ccccc1OCC(O)CN1CCN(CC(=O)Nc2c(C)cccc2C)CC1 (stereo not given) [RANOLAZINE] | Compound NOT metabolized

Test: The drug is tested on Providencia stuartii strain: ATCC25827 for biotransformation. The drug concentrations were measured before and after a 12-h incubation by liquid-chromatography-coupled mass spectrometry (LC–MS)
Conditions: 2 µM

Compound | Bacterial Biotransformation
CS(=O)(=O)O.OC(CCN1CCCCC1)(c1ccccc1)c1ccccc1 [PRIDINOL METHANESULFONATE] | Compound NOT metabolized
CN1[C@@H]2CC[C@H]1C[C@@H](OC(=O)c1c[nH]c3ccccc13)C2 [TROPISETRON] | Compound NOT metabolized
COc1ccccc1OCC(O)CN1CCN(CC(=O)Nc2c(C)cccc2C)CC1 (stereo not given) [RANOLAZINE] | Compound NOT metabolized

Test: The drug is tested on Bacteroides fragilis strain: HMW610 for biotransformation. The drug concentrations were measured before and after a 12-h incubation by liquid-chromatography-coupled mass spectrometry (LC–MS)
Conditions: 2 µM

Compound | Bacterial Biotransformation
CS(=O)(=O)O.OC(CCN1CCCCC1)(c1ccccc1)c1ccccc1 [PRIDINOL METHANESULFONATE] | Compound NOT metabolized
CN1[C@@H]2CC[C@H]1C[C@@H](OC(=O)c1c[nH]c3ccccc13)C2 [TROPISETRON] | Compound NOT metabolized
COc1ccccc1OCC(O)CN1CCN(CC(=O)Nc2c(C)cccc2C)CC1 (stereo not given) [RANOLAZINE] | Compound NOT metabolized

Test: The drug is tested on Collinsella aerofaciens strain: ATCC25986 for biotransformation. The drug concentrations were measured before and after a 12-h incubation by liquid-chromatography-coupled mass spectrometry (LC–MS)
Conditions: 2 µM

Compound | Bacterial Biotransformation
CS(=O)(=O)O.OC(CCN1CCCCC1)(c1ccccc1)c1ccccc1 [PRIDINOL METHANESULFONATE] | Compound NOT metabolized
CN1[C@@H]2CC[C@H]1C[C@@H](OC(=O)c1c[nH]c3ccccc13)C2 [TROPISETRON] | Compound NOT metabolized
COc1ccccc1OCC(O)CN1CCN(CC(=O)Nc2c(C)cccc2C)CC1 (stereo not given) [RANOLAZINE] | Compound NOT metabolized

Conditions: limosilactobacillus reuteri cf48-3a, 12 h, 2 µM
Description: The drug is tested on Lactobacillus reuteri CF48-3A strain: BEI HM-102 for biotransformation. The drug concentrations were measured before and after a 12-h incubation by liquid-chromatography-coupled mass spectrometry (LC–MS)

Compound | Bacterial Biotransformation
CS(=O)(=O)O.OC(CCN1CCCCC1)(c1ccccc1)c1ccccc1 [PRIDINOL METHANESULFONATE] | Compound NOT metabolized
CN1[C@@H]2CC[C@H]1C[C@@H](OC(=O)c1c[nH]c3ccccc13)C2 [TROPISETRON] | Compound NOT metabolized
COc1ccccc1OCC(O)CN1CCN(CC(=O)Nc2c(C)cccc2C)CC1 (stereo not given) [RANOLAZINE] | Compound NOT metabolized

Test: The drug is tested on Bacteroides dorei strain: DSM17855 for biotransformation. The drug concentrations were measured before and after a 12-h incubation by liquid-chromatography-coupled mass spectrometry (LC–MS)
Conditions: phocaeicola dorei, 2 µM

Compound | Bacterial Biotransformation
CS(=O)(=O)O.OC(CCN1CCCCC1)(c1ccccc1)c1ccccc1 [PRIDINOL METHANESULFONATE] | Compound NOT metabolized
CN1[C@@H]2CC[C@H]1C[C@@H](OC(=O)c1c[nH]c3ccccc13)C2 [TROPISETRON] | Compound NOT metabolized
COc1ccccc1OCC(O)CN1CCN(CC(=O)Nc2c(C)cccc2C)CC1 (stereo not given) [RANOLAZINE] | Compound NOT metabolized

Test: The drug is tested on Anaerococcus hydrogenalis strain: DSM7454 for biotransformation. The drug concentrations were measured before and after a 12-h incubation by liquid-chromatography-coupled mass spectrometry (LC–MS)
Conditions: 2 µM

Compound | Bacterial Biotransformation
CS(=O)(=O)O.OC(CCN1CCCCC1)(c1ccccc1)c1ccccc1 [PRIDINOL METHANESULFONATE] | Compound NOT metabolized
CN1[C@@H]2CC[C@H]1C[C@@H](OC(=O)c1c[nH]c3ccccc13)C2 [TROPISETRON] | Compound NOT metabolized
COc1ccccc1OCC(O)CN1CCN(CC(=O)Nc2c(C)cccc2C)CC1 (stereo not given) [RANOLAZINE] | Compound NOT metabolized

Test: The drug is tested on Bifidobacterium longum subsp. Infantis strain: CCUG52486 for biotransformation. The drug concentrations were measured before and after a 12-h incubation by liquid-chromatography-coupled mass spectrometry (LC–MS)
Conditions: 2 µM

Compound | Bacterial Biotransformation
CS(=O)(=O)O.OC(CCN1CCCCC1)(c1ccccc1)c1ccccc1 [PRIDINOL METHANESULFONATE] | Compound NOT metabolized
CN1[C@@H]2CC[C@H]1C[C@@H](OC(=O)c1c[nH]c3ccccc13)C2 [TROPISETRON] | Compound NOT metabolized
COc1ccccc1OCC(O)CN1CCN(CC(=O)Nc2c(C)cccc2C)CC1 (stereo not given) [RANOLAZINE] | Compound NOT metabolized

Test: The drug is tested on Ruminococcus gnavus strain: ATCC29149 for biotransformation. The drug concentrations were measured before and after a 12-h incubation by liquid-chromatography-coupled mass spectrometry (LC–MS)
Conditions: mediterraneibacter gnavus, 2 µM

Compound | Bacterial Biotransformation
CS(=O)(=O)O.OC(CCN1CCCCC1)(c1ccccc1)c1ccccc1 [PRIDINOL METHANESULFONATE] | Compound NOT metabolized
CN1[C@@H]2CC[C@H]1C[C@@H](OC(=O)c1c[nH]c3ccccc13)C2 [TROPISETRON] | Compound NOT metabolized
COc1ccccc1OCC(O)CN1CCN(CC(=O)Nc2c(C)cccc2C)CC1 (stereo not given) [RANOLAZINE] | Compound NOT metabolized

Test: The drug is tested on Bacteroides pectinophilus strain: ATCC43243 for biotransformation. The drug concentrations were measured before and after a 12-h incubation by liquid-chromatography-coupled mass spectrometry (LC–MS)
Conditions: 2 µM

Compound | Bacterial Biotransformation
CS(=O)(=O)O.OC(CCN1CCCCC1)(c1ccccc1)c1ccccc1 [PRIDINOL METHANESULFONATE] | Compound NOT metabolized
CN1[C@@H]2CC[C@H]1C[C@@H](OC(=O)c1c[nH]c3ccccc13)C2 [TROPISETRON] | Compound NOT metabolized
COc1ccccc1OCC(O)CN1CCN(CC(=O)Nc2c(C)cccc2C)CC1 (stereo not given) [RANOLAZINE] | Compound NOT metabolized

Conditions: enterocloster bolteae, 12 h, 2 µM
Description: The drug is tested on Clostridium bolteae strain: ATCCBAA-613 for biotransformation. The drug concentrations were measured before and after a 12-h incubation by liquid-chromatography-coupled mass spectrometry (LC–MS)

Compound | Bacterial Biotransformation
CS(=O)(=O)O.OC(CCN1CCCCC1)(c1ccccc1)c1ccccc1 [PRIDINOL METHANESULFONATE] | Compound NOT metabolized
CN1[C@@H]2CC[C@H]1C[C@@H](OC(=O)c1c[nH]c3ccccc13)C2 [TROPISETRON] | Compound NOT metabolized
COc1ccccc1OCC(O)CN1CCN(CC(=O)Nc2c(C)cccc2C)CC1 (stereo not given) [RANOLAZINE] | Compound NOT metabolized

Conditions: bacteroides eggerthii, 12 h, 2 µM
Description: The drug is tested on Bacteroides eggerthii strain: DSM20697 for biotransformation. The drug concentrations were measured before and after a 12-h incubation by liquid-chromatography-coupled mass spectrometry (LC–MS)

Compound | Bacterial Biotransformation
CS(=O)(=O)O.OC(CCN1CCCCC1)(c1ccccc1)c1ccccc1 [PRIDINOL METHANESULFONATE] | Compound NOT metabolized
CN1[C@@H]2CC[C@H]1C[C@@H](OC(=O)c1c[nH]c3ccccc13)C2 [TROPISETRON] | Compound NOT metabolized
COc1ccccc1OCC(O)CN1CCN(CC(=O)Nc2c(C)cccc2C)CC1 (stereo not given) [RANOLAZINE] | Compound NOT metabolized

Test: The drug is tested on Bacteroides coprophilus strain: DSM18228 for biotransformation. The drug concentrations were measured before and after a 12-h incubation by liquid-chromatography-coupled mass spectrometry (LC–MS)
Conditions: 2 µM

Compound | Bacterial Biotransformation
CS(=O)(=O)O.OC(CCN1CCCCC1)(c1ccccc1)c1ccccc1 [PRIDINOL METHANESULFONATE] | Compound NOT metabolized
CN1[C@@H]2CC[C@H]1C[C@@H](OC(=O)c1c[nH]c3ccccc13)C2 [TROPISETRON] | Compound NOT metabolized
COc1ccccc1OCC(O)CN1CCN(CC(=O)Nc2c(C)cccc2C)CC1 (stereo not given) [RANOLAZINE] | Compound NOT metabolized
